According to patent US20250296953A1, “3,4-THIAZOLO-STEROIDS AND METHODS OF MAKING AND USING THE SAME” (Arkansas State University - Jonesboro, priority 2018, published 2025):
Like-named read-outs stand apart in the source and are kept apart here.

How the values were obtained:
[1] = system: 60 different human tumor cell lines; settings: five dose; for CC50: read-out: LC50
glioblastoma (SF-295) = assay: NCI 60 five dose screen; settings: SF-295 (CNS Cancer), five dose
RPMI-8226 = assay: NCI 60 five dose screen
SR = assay: NCI 60 five dose screen
[2] = NCI-H23 (Non-small Cell Lung Cancer)
[3] = NCI-H226 (Non-small Cell Lung Cancer)
[4] = NCI-H322M (Non-small Cell Lung Cancer)
[5] = NCI-H460 (Non-small Cell Lung Cancer)
[6] = NCI-H522 (Non-small Cell Lung Cancer)
[7] = RPMI-8226 (Leukemia), five dose

For “(1S,2R,13R,14S,18S)-7-(2,4-dimethylanilino)-2,18-dimethyl-6-thia-8-azapentacyclo[11.7.0.02,10.05,9.014,18]icosa-5(9),7,10-trien-17-one [IIa.14]”, the GI50 ([1]; MOLT-4 (Leukemia)) was 2.49 µM, the TGI ([1]; MOLT-4 (Leukemia)) was >1.00E−4 and the GI50 [1, 2] was 2.01 µM. It also gave a TGI [1, 2] of 4.85E−6, a GI50 [1, 3] of 2.35 µM and a GI50 [1, 4] of 4.28 µM. For the same substance, the TGI [1, 4] was >1.00E−4, the GI50 [1, 5] was 2.7 µM and the TGI [1, 5] was 8.39E−6. It also gave a GI50 [1, 6] of 1.68 µM, a TGI [1, 6] of 3.28E−6 and a GI50 ([1]; NCI/ADR-RES (Ovarian Cancer)) of 2.9 µM. For the same substance, the TGI ([1]; NCI/ADR-RES (Ovarian Cancer)) was >1.00E−4, the GI50 ([1]; OVCAR-3 (Ovarian Cancer)) was 2.18 µM and the TGI ([1]; OVCAR-3 (Ovarian Cancer)) was 5.03E−6. The GI50 ([1]; OVCAR-4 (Ovarian Cancer)) was 2.83 µM, the TGI ([1]; OVCAR-4 (Ovarian Cancer)) was >1.00E−4 and the GI50 ([1]; OVCAR-5 (Ovarian Cancer)) was 2.9 µM. For the same substance, the TGI ([1]; OVCAR-5 (Ovarian Cancer)) was >1.00E−4, the GI50 ([1]; OVCAR-8 (Ovarian Cancer)) was 2.63 µM and the TGI ([1]; OVCAR-8 (Ovarian Cancer)) was 7.26E−6. For the same substance, the GI50 ([1]; PC-3 (Prostate Cancer)) was 1.86 µM, the TGI ([1]; PC-3 (Prostate Cancer)) was 4.53E−6 and the GI50 ([1]; RXF 393 (Renal Cancer)) was 1.74 µM. For the same substance, the TGI ([1]; RXF 393 (Renal Cancer)) was 3.23E−6, the GI50 ([1]; SF-268 (CNS Cancer)) was 2.77 µM and the GI50 ([1]; SK-MEL-2 (Melanoma)) was 2.19 µM. The TGI ([1]; SK-MEL-2 (Melanoma)) was 4.74E−6, the GI50 ([1]; SK-MEL-5 (Melanoma)) was 1.86 µM and the TGI ([1]; SK-MEL-5 (Melanoma)) was 3.73E−6. For the same substance, the GI50 ([1]; SK-MEL-28 (Melanoma)) was 2.31 µM, the TGI ([1]; SK-MEL-28 (Melanoma)) was 6.08E−6 and the GI50 ([1]; SK-OV-3 (Ovarian Cancer)) was 9.85 µM. The TGI ([1]; SK-OV-3 (Ovarian Cancer)) was >1.00E−4, the GI50 ([1]; SN12C (Renal Cancer)) was 2.17 µM and the TGI ([1]; SN12C (Renal Cancer)) was 5.06E−6. It also gave a GI50 ([1]; SNB-19 (CNS Cancer)) of 2.12 µM, a TGI ([1]; SNB-19 (CNS Cancer)) of 5.09E−6 and a GI50 ([1]; SNB-75 (CNS Cancer)) of 2.19 µM. For the same substance, the TGI ([1]; SNB-75 (CNS Cancer)) was 9.75E−5, the GI50 ([1]; SW-620 (Colon Cancer)) was 2.7 µM and the GI50 ([1]; T-47D (Breast Cancer)) was 2.89 µM. For the same substance, the TGI ([1]; T-47D (Breast Cancer)) was >1.00E−4, the GI50 ([1]; TK-10 (Renal Cancer)) was 2.46 µM and the TGI ([1]; TK-10 (Renal Cancer)) was 6.70E−6. The TGI ([1]; U251 (CNS Cancer)) was 3.21E−6, the GI50 ([1]; UACC-62 (Melanoma)) was 1.72 µM and the TGI ([1]; UACC-62 (Melanoma)) was 3.94E−6. For the same substance, the GI50 ([1]; UACC-257 (Melanoma)) was 3.7 µM, the TGI ([1]; UACC-257 (Melanoma)) was >1.00E−4 and the GI50 ([1]; UO-31 (Renal Cancer)) was 1.34 µM. The TGI ([1]; UO-31 (Renal Cancer)) was 2.86E−6, the CC50 ([1]; 786-0 (Renal Cancer)) was 5.84 µM and the CC50 ([1]; A498 (Renal Cancer)) was > 100 µM. The CC50 ([1]; A549/ATCC (Non-small Cell Lung Cancer)) was > 100 µM, the CC50 ([1]; BT-549 (Breast Cancer)) was 5.8 µM and the CC50 ([1]; CAKI-1 (Renal Cancer)) was > 100 µM. The CC50 ([1]; CCRF-CEM (Leukemia)) was > 100 µM, the CC50 ([1]; COLO 205 (Colon Cancer)) was > 100 µM and the CC50 ([1]; DU-145 (Prostate Cancer)) was > 100 µM. The CC50 ([1]; EKVX (Non-small Cell Lung Cancer)) was > 100 µM, the CC50 ([1]; HCT-15 (Colon Cancer)) was > 100 µM and the CC50 ([1]; HCT-116 (Colon Cancer)) was 5.46 µM. The CC50 ([1]; HL-60(TB) (Leukemia)) was > 100 µM, the CC50 ([1]; HOP-62 (Non-small Cell Lung Cancer)) was > 100 µM and the CC50 ([1]; HOP-92 (Non-small Cell Lung Cancer)) was 8.68 µM. The CC50 ([1]; HT29 (Colon Cancer)) was > 100 µM, the CC50 ([1]; IGROV1 (Ovarian Cancer)) was > 100 µM and the CC50 ([1]; K-562 (Leukemia)) was > 100 µM. The CC50 ([1]; KM12 (Colon Cancer)) was ≥ 100 µM, the CC50 ([1]; LOX IMVI (Melanoma)) was 5.96 µM and the CC50 ([1]; MALME-3M (Melanoma)) was > 100 µM. For the same substance, the CC50 ([1]; MCF7 (Breast Cancer)) was > 100 µM, the CC50 ([1]; MDA-MB-231/ATCC (Breast Cancer)) was > 100 µM and the CC50 ([1]; MDA-MB-435 (Melanoma)) was > 100 µM. For the same substance, the CC50 ([1]; MDA-MB-468 (Breast Cancer)) was 8.01 µM, the CC50 ([1]; MOLT-4 (Leukemia)) was > 100 µM and the CC50 [1, 2] was > 100 µM. The CC50 [1, 3] was > 100 µM, the CC50 [1, 5] was > 100 µM and the CC50 [1, 6] was 6.43 µM. The CC50 ([1]; NCI/ADR-RES (Ovarian Cancer)) was > 100 µM, the CC50 ([1]; OVCAR-3 (Ovarian Cancer)) was 38.2 µM and the CC50 ([1]; OVCAR-4 (Ovarian Cancer)) was > 100 µM. For the same substance, the CC50 ([1]; OVCAR-5 (Ovarian Cancer)) was > 100 µM, the CC50 ([1]; OVCAR-8 (Ovarian Cancer)) was > 100 µM and the CC50 ([1]; RXF 393 (Renal Cancer)) was 6.01 µM. The CC50 ([1]; SF-268 (CNS Cancer)) was > 100 µM, the CC50 ([1]; SK-MEL-2 (Melanoma)) was 22.7 µM and the CC50 ([1]; SK-MEL-5 (Melanoma)) was 7.47 µM. The CC50 ([1]; SK-MEL-28 (Melanoma)) was > 100 µM, the CC50 ([1]; SK-OV-3 (Ovarian Cancer)) was > 100 µM and the CC50 ([1]; SN12C (Renal Cancer)) was > 100 µM. For the same substance, the CC50 ([1]; SNB-19 (CNS Cancer)) was > 100 µM, the CC50 ([1]; SNB-75 (CNS Cancer)) was > 100 µM and the CC50 ([1]; SW-620 (Colon Cancer)) was > 100 µM. For the same substance, the CC50 ([1]; T-47D (Breast Cancer)) was > 100 µM, the CC50 ([1]; TK-10 (Renal Cancer)) was > 100 µM and the CC50 ([1]; U251 (CNS Cancer)) was 6.1 µM. For the same substance, the CC50 ([1]; UACC-62 (Melanoma)) was 9.02 µM, the CC50 ([1]; UACC-257 (Melanoma)) was > 100 µM and the CC50 ([1]; UO-31 (Renal Cancer)) was 6.12 µM. The GI50 (glioblastoma (SF-295)) was 1.81 µM, the TGI (glioblastoma (SF-295)) was 4.10E−6 and the GI50 (RPMI-8226; [7]) was 2.43 µM. The TGI (RPMI-8226; [7]) was 6.25E−6, the “50% growth inhibition (GI50)” value (RPMI-8226; leukemia cell line RPMI-8226) was “submicromolar” and the CC50 (RPMI-8226; read-out: LC50, RPMI-8226 (Leukemia), five dose) was > 100 µM. For the same substance, the GI50 (SR; SR (Leukemia), five dose) was 2.32 µM, the TGI (SR; SR (Leukemia), five dose) was >1.00E−4 and the “50% growth inhibition (GI50)” value (SR; leukemia cell line SR) was “submicromolar”. For the same substance, the CC50 (SR; read-out: LC50, SR (Leukemia), five dose) was > 100 µM.
